Results on 21 compounds are retold here after patent publication US20260293896A1, “PLANT GROWTH REGULATOR, PLANT GROWTH ACCELERATION METHOD, OR PLANT GROWTH-REGULATING PRODUCT” (KUREHA CORPORATION, priority 2022, published 2026).

Structures are written as SMILES.

Assay type in all cases: in vivo
In assay [1] the test system is rapeseed. Nature of the assay: Evaluation Example 3: Comparison of Elongated Plant Height of Rapeseed. Conditions: petri dish, 5 mL, 24° C, 7th day after seeding, EGT 1 mM and/or Arg 1 mM. The method, then: The plant growth regulators of Example 6 and Comparative Examples 8 and 9 were prepared so as to attain the concentrations indicated in Table 3 below. EGT and Arg were commercially available products, and pure water was used as a solvent.
Into a 9 cm petri dish on which filter paper was spread, 5 mL of the plant growth regulator was added. Seven seeds of rapeseed were sown per one petri dish. In a thermostatic chamber set at room temperature of 24° C., the light period was 16 hours and the dark period was 8 hours. The light conditions were set using a fluorescent lamp (PLANT FLEC, 40 W LED fluorescent lamp for plant growth, electric bulb color, available from Nippon Medical and Chemical Instruments Co., Ltd.) such that the light intensity was 5000 lx in the central part under irradiation with the fluorescent lamp.
(§1) The plant height of the rapeseed on the 7th day after seeding was evaluated.

In assay [2] the test system is rapeseed. Put plainly: Evaluation Example 4: Comparison of Elongated Plant Height of Rapeseed. Conditions: petri dish, 5 mL, 24° C, 7th day after seeding, EGT 1 mM and/or component (A) 1 mM. The method, then:
The plant growth regulators of Examples 7 and 8 and Comparative Examples 10 to 12 were prepared so as to attain the concentrations indicated in Table 4 below. EGT, Asn and Lys were commercially available products, and pure water was used as a solvent.
(§2) Into a 9 cm petri dish on which filter paper was spread, 5 mL of the plant growth regulator was added. Ten seeds of rapeseed were sown per one petri dish. In a thermostatic chamber set at room temperature of 24° C., the light period was 16 hours and the dark period was 8 hours. The light conditions were set using a fluorescent lamp (PLANT FLEC, 40 W LED fluorescent lamp for plant growth, electric bulb color, available from Nippon Medical and Chemical Instruments Co., Ltd.) such that the light intensity was 5000 lx in the central part under irradiation with the fluorescent lamp.
as §1

Assay [3] relates to rapeseed. Put plainly: Evaluation Example 7: Comparison of Elongated Plant Height of Rapeseed. Conditions: petri dish, 5 mL, 24° C, 7th day after seeding, EGT 0.5 mM and/or uracil 0.5 mM. The method, then:
The plant growth regulators of Example 18 and Comparative Examples 24 and 25 were prepared so as to attain the concentrations indicated in Table 7 below. EGT and uracil were commercially available products, and pure water was used as a solvent.
as §2, §1

Assay [4] has as its system wheat. Put plainly: Evaluation Example 8: Comparison of Elongated Plant Height of Wheat. Conditions: petri dish, 5 mL, 24° C, 7th day after seeding, EGT 0.5 mM and/or component (A) 0.5 mM. The method, then: The plant growth regulators of Examples 19 and 20 and Comparative Examples 26 to 28 were prepared so as to attain the concentrations indicated in Table 8 below. EGT, guanine and thymine were commercially available products, and pure water was used as a solvent.
(§3) Into a 9 cm petri dish on which filter paper was spread, 5 mL of the plant growth regulator was added. Ten seeds of wheat were sown per one petri dish. In a thermostatic chamber set at room temperature of 24° C., the light period was 16 hours and the dark period was 8 hours. The light conditions were set using a fluorescent lamp (PLANT FLEC, 40 W LED fluorescent lamp for plant growth, electric bulb color, available from Nippon Medical and Chemical Instruments Co., Ltd.) such that the light intensity was 5000 lx in the central part under irradiation with the fluorescent lamp.
(§4) The plant height of the wheat on the 7th day after seeding was evaluated.

Assay [5] concerns wheat. Nature of the assay: Evaluation Example 9: Comparison of Elongated Plant Height of Wheat. Conditions: petri dish, 5 mL, 24° C, 7th day after seeding, EGT 0.5 mM and/or component (A) 0.5 mM. The method, then:
The plant growth regulators of Examples 21 and 22 and Comparative Examples 29 to 31 were prepared so as to attain the concentrations indicated in Table 9 below. EGT, trehalose and inositol were commercially available products, and pure water was used as a solvent.
as §3, §4

The next assay deals with tomato (Micro Tom). Nature of the assay: Evaluation Example 12: Comparison of Number of Flowers and Buds of Tomato. The note with it: 50 mL on 32nd, 34th, 36th days, evaluated 83rd day after seeding, EGT 0.1 mM and/or component (A) 0.1 mM. The method, then: The plant growth regulators of Examples 32 and 33 and Comparative Examples 43 to 45 were prepared so as to attain the concentrations indicated in Table 12 below. EGT, Arg and Glu were commercially available products, and pure water was used as a solvent.
In a plastic pot having a diameter of 135 mm and a height of 110 mm, 1 kg of granular soil (Kumiai horticultural soil) was placed, and one individual tomato (Micro Tom) was sown per one pot.
The tomato was managed in a greenhouse set at room temperature of 25° C. Chemical treatment was started 5 weeks after seeding. More specifically, on the 32nd, 34th, and 36th days after seeding, 50 mL of the plant growth regulator was added.
On the 83rd day after seeding, the number of flowers and buds was evaluated.

For assay [6], the system named is wheat. Put plainly: Evaluation Example 15: Comparison of Elongated Plant Height of Wheat. Conditions: petri dish, 5 mL, 24° C, 7th day after seeding, EGT 1 mM and/or carnitine 10 mM. The method, then:
The plant growth regulators of Example 36 and Comparative Examples 50 and 51 were prepared so as to attain the concentrations indicated in Table 15 below. EGT and carnitine were commercially available products, and pure water was used as a solvent.
as §3, §4

For assay [7], the system named is wheat. Put plainly: Evaluation Example 16: Comparison of Elongated Plant Height of Wheat. The note with it: petri dish, 5 mL, 24° C, 7th day after seeding, EGT 1 mM and/or trehalose 0.01 or 0.1 mM. The method, then:
The plant growth regulators of Examples 37 and 38 and Comparative Examples 52 to 54 were prepared so as to attain the concentrations indicated in Table 16 below. EGT and trehalose were commercially available products, and pure water was used as a solvent.
as §3, §4

In the case of `C[N+](C)(C)[C@@H](Cc1c[nH]c(=S)[nH]1)C(=O)[O-]` [Comparative Example 8, L-(+)-ergothioneine], the “Elongated plant height, ratio to untreated control” value (“Elongated plant height, ratio” below) in the assay on rapeseed [1] was 1.2. On the same count and under the same terms, as for `N=C(N)NCCC[C@H](N)C(=O)O` [Comparative Example 9, L-arginine], the figure is 0.9.

With `C[N+](C)(C)[C@@H](Cc1c[nH]c(=S)[nH]1)C(=O)[O-]` [Comparative Example 10, L-(+)-ergothioneine], the “Elongated plant height, ratio” value in the assay on rapeseed [2] worked out at 1.1. As to `C[N+](C)(C)[C@@H](Cc1c[nH]c(=S)[nH]1)C(=O)[O-]` [Comparative Example 24, L-(+)-ergothioneine], the “Elongated plant height, ratio” value with rapeseed [3] was 1.1. The same measure, in the same setting: the value for `O=c1cc[nH]c(=O)[nH]1` [Comparative Example 25, uracil] was 1.0. Take `C[N+](C)(C)[C@@H](Cc1c[nH]c(=S)[nH]1)C(=O)[O-]` [Comparative Example 26, L-(+)-ergothioneine]: the “Elongated plant height, ratio” value in the assay on wheat [4] is recorded as 1.1. On to `C[N+](C)(C)[C@@H](Cc1c[nH]c(=S)[nH]1)C(=O)[O-]` [Comparative Example 29, L-(+)-ergothioneine], for which, in the assay on wheat [5], the “Elongated plant height, ratio” value is listed as 1.1. As to `C[N+](C)(C)[C@@H](Cc1c[nH]c(=S)[nH]1)C(=O)[O-]` [Comparative Example 43, L-(+)-ergothioneine], the “Total number of flowers and buds, ratio to untreated control” value (shortened to “Total number of flowers and buds, ratio”) in the assay with tomato (Micro Tom) turned out to be 1.1. On to `C[N+](C)(C)[C@@H](Cc1c[nH]c(=S)[nH]1)C(=O)[O-]` [Comparative Example 50, L-(+)-ergothioneine], for which, in the assay on wheat [6], the “Elongated plant height, ratio” value was 1.1. `C[N+](C)(C)CC(O)CC(=O)[O-]` (stereo not drawn) [Comparative Example 51, carnitine]: in the assay on wheat [6], the “Elongated plant height, ratio” value turned out to be 1.0.

On to `C[N+](C)(C)[C@@H](Cc1c[nH]c(=S)[nH]1)C(=O)[O-]` [Comparative Example 52, L-(+)-ergothioneine], for which the “Elongated plant height, ratio” value with wheat [7] is on record as 1.1. Consider `NC(=O)C[C@H](N)C(=O)O` [compound 11, L-asparagine], for which the “Elongated plant height, ratio” value in the assay on rapeseed [2] came to 1.1. With `NCCCC[C@H](N)C(=O)O` [compound 12, L-lysine], in the assay on rapeseed [2], the “Elongated plant height, ratio” value worked out at 0.6.

With `Nc1nc2nc[nH]c2c(=O)[nH]1` [compound 27, guanine], the “Elongated plant height, ratio” value in the assay on wheat [4] is on record as 0.9. As for `Cc1c[nH]c(=O)[nH]c1=O` [compound 28, thymine], the “Elongated plant height, ratio” value in the assay with wheat [4] came to 0.9. As for `OC[C@H]1O[C@H](O[C@H]2O[C@H](CO)[C@@H](O)[C@H](O)[C@H]2O)[C@H](O)[C@@H](O)[C@@H]1O` [compound 30, trehalose], the “Elongated plant height, ratio” value with wheat [5] was 1.0. The same measure, in the same setting: the value for `O[C@H]1[C@H](O)[C@@H](O)[C@H](O)[C@@H](O)[C@H]1O` [compound 31, inositol] was 0.9.

As for `N=C(N)NCCC[C@H](N)C(=O)O` [compound 44, L-arginine], the “Total number of flowers and buds, ratio” value in the assay on tomato (Micro Tom) stood at 1.0. With `N[C@@H](CCC(=O)O)C(=O)O` [compound 45, L-glutamic acid], the “Total number of flowers and buds, ratio” value with tomato (Micro Tom) is reported as 1.0. `OC[C@H]1O[C@H](O[C@H]2O[C@H](CO)[C@@H](O)[C@H](O)[C@H]2O)[C@H](O)[C@@H](O)[C@@H]1O` [compound 53, trehalose]: the “Elongated plant height, ratio” value in the assay on wheat [7] was found to be 1.0. With `OC[C@H]1O[C@H](O[C@H]2O[C@H](CO)[C@@H](O)[C@H](O)[C@H]2O)[C@H](O)[C@@H](O)[C@@H]1O` [compound 54, trehalose], the “Elongated plant height, ratio” value in the assay with wheat [7] is given as 0.9.
